Data published in patent US5695970A, “Glucan lyase producing 1,5-anhydrofructose” (priority 1992, dated 1997).
“Also recorded” adds a separate entry of the source. Each block holds one molecule with its values, some of them ahead of it.

Key:
α-1,4-glucan lyase [1] = assay: Substrate specificity of α-1,4-glucan lyase, long term incubation (24 h), continuation of Table IV; format: biochemical, Gracilariopsis lemaneiformis; details: for Product released: 24 h; for release of 1,5-anhydrofructose and glucose checked by TLC on Silica gel 60: after 24 h of incubation; for activity of the lyase with the substrate (in words): long term incubation at 30° C.
Procedure: The incubation time was 24 h.
(§1) The reaction mixture for the assay of α-1,4-glucan lyase was composed of 240 μl 62.5 mM Mops-NaOH containing 6 mg soluble starch (pH 6.2), the enzyme preparation and distilled water to a final volume of 300 μl. The reaction was carried out at 30° C. for 10-30 min. Liberated 1,5-anhydrofructose was determined by monitoring the absorbance at 546 nm after the addition of 3,5-dinitrosalicylic acid reagent. Soluble starch in the reaction mixture may be replaced by other substrates and the final substrate concentration may be varied as indicated in the text. The reaction time and enzyme concentration used in enzyme activity assay have been chosen to ensure the linearity of the reaction rate. One unit of α-1,4-glucan lyase activity is defined as the amount of enzyme which liberates 1μmol of 1,5-anhydrofructose min^-1 under the conditions described above.

α-1,4-glucan lyase [2] = assay: Inhibition studies of α-1,4-glucan lyase activity; format: biochemical, Gracilariopsis lemaneiformis; details: for inhibition of the enzyme: 50mM; for inhibition of the algal enzyme (in words): summary statement; for inhibition of enzymic activity: 0.1M
Procedure: as §1

[3] = substrate 4 mg ml^-1, 1.64 μg enzyme
[4] = inhibitor 2 mM, amylopectin as substrate
[5] = inhibitor 2 mM, maltose as substrate
[6] = substrate 10 mM, 1.64 μg enzyme
[7] = substrate 10 mg ml^-1, 1.64 μg enzyme

Product released (α-1,4-glucan lyase [1]; substrate 5 mM, 1.64 μg enzyme): 0 nmol
Molecule: Nc1ncnc2c1ncn2[C@@H]1O[C@H](COP(=O)(O)OP(=O)(O)O[C@H]2O[C@H](CO)[C@@H](O)[C@H](O)[C@H]2O)[C@@H](O)[C@H]1O [ADP-Glucose]

Molecule: [Ca+2].[Cl-].[Cl-] [CaCl2]
inhibition of the enzyme (α-1,4-glucan lyase [2]; amylopectin as substrate): no inhibition | inhibition of the enzyme (α-1,4-glucan lyase [2]; maltose as substrate): no inhibition

Product released (α-1,4-glucan lyase [1]; [3]): 0 nmol
Molecule: OC[C@H]1O[C@@H](O[C@H]2[C@H](O)[C@@H](O)C(O)O[C@@H]2CO)[C@H](O)[C@@H](O)[C@@H]1O (stereo partly shown) [Cellobiose, cellobiose]
release of 1,5-anhydrofructose and glucose checked by TLC on Silica gel 60 (α-1,4-glucan lyase [1]): No 1,5-anhydrofructose and glucose were released

Molecule: OC[C@H]1O[C@@H]2O[C@H]3[C@H](O)[C@@H](O)[C@@H](O[C@H]4[C@H](O)[C@@H](O)[C@@H](O[C@H]5[C@H](O)[C@@H](O)[C@@H](O[C@H]6[C@H](O)[C@@H](O)[C@@H](O[C@H]7[C@H](O)[C@@H](O)[C@@H](O[C@H]1[C@H](O)[C@H]2O)O[C@@H]7CO)O[C@@H]6CO)O[C@@H]5CO)O[C@@H]4CO)O[C@@H]3CO [Cyclohexaamylose, cyclohexaamylose]
inhibitory effect on the enzyme activity (α-1,4-glucan lyase [2]; 4 mM, maltose as substrate): no inhibitory effect | inhibitory effect on the enzyme activity (α-1,4-glucan lyase [2]; 4 mM, soluble starch as substrate): no inhibitory effect | release of 1,5-anhydrofructose and glucose checked by TLC on Silica gel 60 (α-1,4-glucan lyase [1]): No 1,5-anhydrofructose and glucose were released | Product released (α-1,4-glucan lyase [1]; substrate 20 mM, 1.64 μg enzyme): 0 nmol

inhibition of enzyme activity (α-1,4-glucan lyase [2]; inhibitor 0.165 mM, maltose as substrate): inhibit the activity completely | inhibition of enzyme activity (α-1,4-glucan lyase [2]; [4]): completely inhibited | inhibition of enzyme activity (α-1,4-glucan lyase [2]; [5]): completely inhibited | inhibition of the algal enzyme (in words) (α-1,4-glucan lyase [2]; no concentration): strongly inhibited
Molecule: OC[C@H]1NC[C@H](O)[C@@H](O)[C@@H]1O [Deoxynojirimycin, deoxynojirimycin]

Molecule: O=P(O)(O)O[C@H]1O[C@H](CO)[C@@H](O)[C@H](O)[C@H]1O [Glucose 1-Phosphate]
Product released (α-1,4-glucan lyase [1]; [6]): 0 nmol

Molecule: [Cl][Hg][Cl] [HgCl2]
inhibition of the algal enzyme (in words) (α-1,4-glucan lyase [2]; no concentration): strongly inhibited

Product released (α-1,4-glucan lyase [1]; [3]): 0 nmol
Molecule: OC[C@H]1O[C@H](OC[C@H]2OC(O)[C@H](O)[C@@H](O)[C@@H]2O)[C@H](O)[C@@H](O)[C@@H]1O (stereo partly shown) [Isomaltose, isomaltose]
release of 1,5-anhydrofructose and glucose checked by TLC on Silica gel 60 (α-1,4-glucan lyase [1]): No 1,5-anhydrofructose and glucose were released

inhibition of the enzyme (α-1,4-glucan lyase [2]; amylopectin as substrate): no inhibition | inhibition of the enzyme (α-1,4-glucan lyase [2]; maltose as substrate): no inhibition
Molecule: [Cl-].[K+] [KCl]

inhibition of enzymic activity (α-1,4-glucan lyase [2]; amylopectin as substrate): no inhibition | inhibition of enzymic activity (α-1,4-glucan lyase [2]; maltose as substrate): no inhibition | Product released (α-1,4-glucan lyase [1]; [7]): 0 nmol
Molecule: OC[C@H]1O[C@@H](O[C@H]2[C@H](O)[C@@H](O)C(O)O[C@@H]2CO)[C@H](O)[C@@H](O)[C@H]1O (stereo partly shown) [Lactose, lactose]
release of 1,5-anhydrofructose and glucose checked by TLC on Silica gel 60 (α-1,4-glucan lyase [1]): No 1,5-anhydrofructose and glucose were released

inhibition of enzymic activity (α-1,4-glucan lyase [2]; amylopectin as substrate): ~27% | inhibition of enzymic activity (α-1,4-glucan lyase [2]; maltose as substrate): around 47% | type of inhibition (α-1,4-glucan lyase [2]; maltose as substrate): competitive | inhibition of the algal enzyme (in words) (α-1,4-glucan lyase [2]; maltose as substrate): inhibited | Product released (α-1,4-glucan lyase [1]; [3]): 122.4 nmol
Molecule: OC[C@@H](O)[C@@H](O[C@H]1O[C@H](CO)[C@@H](O)[C@H](O)[C@H]1O)[C@H](O)[C@@H](O)CO [Maltitol, maltitol]

inhibition of enzymic activity (α-1,4-glucan lyase [2]; amylopectin as substrate): no inhibition | inhibition of enzymic activity (α-1,4-glucan lyase [2]; maltose as substrate): no inhibition | Product released (α-1,4-glucan lyase [1]; [7]): 0 nmol
Molecule: OC[C@H]1O[C@H](OC[C@H]2OC(O)[C@H](O)[C@@H](O)[C@@H]2O)[C@H](O)[C@@H](O)[C@H]1O (stereo partly shown) [Melibiose, melibiose]
release of 1,5-anhydrofructose and glucose checked by TLC on Silica gel 60 (α-1,4-glucan lyase [1]): No 1,5-anhydrofructose and glucose were released

inhibitory effect on the enzyme activity (α-1,4-glucan lyase [2]; 12 mM, maltose as substrate): no inhibitory effect | inhibitory effect on the enzyme activity (α-1,4-glucan lyase [2]; 12 mM, soluble starch as substrate): no inhibitory effect | Product released (α-1,4-glucan lyase [1]; [6]): 0 nmol
Molecule: CO[C@H]1O[C@H](CO)[C@@H](O)[C@H](O)[C@H]1O [Methyl α-D-glucoside, methyl α-D-glucoside]
release of 1,5-anhydrofructose and glucose checked by TLC on Silica gel 60 (α-1,4-glucan lyase [1]): No 1,5-anhydrofructose and glucose were released

Molecule: [Cl-].[Cl-].[Mg+2] [MgCl2]
inhibition of the enzyme (α-1,4-glucan lyase [2]; amylopectin as substrate): no inhibition | inhibition of the enzyme (α-1,4-glucan lyase [2]; maltose as substrate): no inhibition

Molecule: [Cl][Mn][Cl] [MnCl2]
inhibition of the enzyme (α-1,4-glucan lyase [2]; amylopectin as substrate): no inhibition | inhibition of the enzyme (α-1,4-glucan lyase [2]; maltose as substrate): no inhibition

activity of the lyase with the substrate (in words) (α-1,4-glucan lyase [1]): able to degrade | Product released (α-1,4-glucan lyase [1]; [3]): 13452.8 nmol
Molecule: OC[C@H]1O[C@H](O[C@H]2[C@H](O)[C@@H](CO)OC(O)[C@@H]2O)[C@H](O)[C@@H](O)[C@@H]1O (stereo partly shown) [Nigerose, nigerose]

Molecule: O=C(O)c1cc[c]([Hg][Cl])cc1 [PCMB, p-chloromercuribenzoic acid]
inhibition of enzyme activity (α-1,4-glucan lyase [2]; [4]): around 90% | inhibition of enzyme activity (α-1,4-glucan lyase [2]; [5]): around 90% | inhibition of the algal enzyme (in words) (α-1,4-glucan lyase [2]; no concentration): strongly inhibited

activity of the lyase with the substrate (in words) (α-1,4-glucan lyase [1]): no activity | Product released (α-1,4-glucan lyase [1]; substrate 2 mM, 1.64 μg enzyme): 0 nmol
Molecule: O=[N+]([O-])c1ccc(O[C@H]2O[C@H](CO)[C@H](O)[C@H](O)[C@H]2O)cc1 [PNPGal, p-nitrophenyl-α-D-galactoside]

activity of the lyase with the substrate (in words) (α-1,4-glucan lyase [1]): no activity | Product released (α-1,4-glucan lyase [1]; substrate 2 mM, 1.64 μg enzyme): 0 nmol
Molecule: O=[N+]([O-])c1ccc(O[C@H]2O[C@H](CO)[C@@H](O)[C@H](O)[C@@H]2O)cc1 [PNPMan, p-introphenyl-α-D-mannoside]

Product released (α-1,4-glucan lyase [1]; [3]): 13465.6 nmol
Molecule: OC[C@H]1O[C@H](OC[C@H]2O[C@H](O[C@H]3[C@H](O)[C@@H](O)C(O)O[C@@H]3CO)[C@H](O)[C@@H](O)[C@@H]2O)[C@H](O)[C@@H](O)[C@@H]1O (stereo partly shown) [Panose, panose]

inhibition of enzymic activity (α-1,4-glucan lyase [2]; amylopectin as substrate): no inhibition | inhibition of enzymic activity (α-1,4-glucan lyase [2]; maltose as substrate): no inhibition | Product released (α-1,4-glucan lyase [1]; [7]): 0 nmol
Molecule: OC[C@H]1O[C@@](CO)(O[C@H]2O[C@H](CO)[C@@H](O)[C@H](O)[C@H]2O)[C@@H](O)[C@@H]1O [Sucrose, sucrose]
release of 1,5-anhydrofructose and glucose checked by TLC on Silica gel 60 (α-1,4-glucan lyase [1]): No 1,5-anhydrofructose and glucose were released

inhibition of enzymic activity (α-1,4-glucan lyase [2]; amylopectin as substrate): no inhibition | inhibition of enzymic activity (α-1,4-glucan lyase [2]; maltose as substrate): no inhibition | Product released (α-1,4-glucan lyase [1]; [7]): 0 nmol
Molecule: OC[C@H]1O[C@H](O[C@H]2O[C@H](CO)[C@@H](O)[C@H](O)[C@H]2O)[C@H](O)[C@@H](O)[C@@H]1O [Trehalose, trehalose]
release of 1,5-anhydrofructose and glucose checked by TLC on Silica gel 60 (α-1,4-glucan lyase [1]): No 1,5-anhydrofructose and glucose were released

inhibition of enzymic activity (α-1,4-glucan lyase [2]; amylopectin as substrate): no inhibition | inhibition of enzymic activity (α-1,4-glucan lyase [2]; maltose as substrate): no inhibition
Molecule: OCC(O)CO [glycerol]

inhibition of enzymic activity (α-1,4-glucan lyase [2]; amylopectin as substrate): no inhibition | inhibition of enzymic activity (α-1,4-glucan lyase [2]; maltose as substrate): no inhibition
Molecule: O[C@H]1[C@H](O)[C@@H](O)[C@H](O)[C@@H](O)[C@H]1O [inositol]

Molecule: OC[C@@H](O)[C@@H](O)[C@H](O)[C@@H](O)CO [sorbitol]
inhibition of enzymic activity (α-1,4-glucan lyase [2]; amylopectin as substrate): no inhibition | inhibition of enzymic activity (α-1,4-glucan lyase [2]; maltose as substrate): no inhibition

inhibition of enzymic activity (α-1,4-glucan lyase [2]; amylopectin as substrate): no inhibition | inhibition of enzymic activity (α-1,4-glucan lyase [2]; maltose as substrate): no inhibition
Molecule: arabinose

Product released (α-1,4-glucan lyase [1]; substrate 2 mM, 4.91 μg enzyme): 6.16 nmol
Molecule: blocked p-nitrophenyl-α-D-maltoheptaoside [BPNPG7]
activity of the lyase with the substrate (in words) (α-1,4-glucan lyase [1]): very low degrading rate; also recorded: little or no activity

inhibition of enzymic activity (α-1,4-glucan lyase [2]; amylopectin as substrate): no inhibition | inhibition of enzymic activity (α-1,4-glucan lyase [2]; maltose as substrate): no inhibition
Molecule: xylose
